# Data as given in paper PMC12402003 (Frontiers in Nutrition, 2025).
# What was measured:
# [1] = test system: Fasn; test: Western blot of Fasn protein in Caco-2/HepG2 co-culture; format: cell-based, human; settings: 1 mM OA vs. control, p < 0.01
# Procedure: Cells from the co-culture model were lysed and supernatants were collected. The protein concentrations were determined using the BCA Protein Quantitation Kit. Then electrophoresis of samples was conducted using a SDS-PAGE kit (Beyotime Biotechnology) following the manufacturer’s instructions and transferred to poly-vinylidene difluoride (PVDF) membrane. Next, membranes were incubated in 5% nonfat milk to block non-specific antibody binding for 30 min at room temperature and followed by incubating with primary antibodies and secondary antibodies. Chemiluminescence based-images of the blots were acquired using ImageQuant LAS 500 system (GE, United States). Protein bands were quantified using ImageJ (version 1.53a) software. The changes in expression levels of these proteins detected finally are used to evaluate the sample’s effect on lipid metabolism.
# [2] = test system: HepG2 cells; test: TG and TC content in OA-induced high-fat HepG2 cells; format: cell-based, human; settings: 1 mM OA high-fat model vs control group
# Procedure: For high fat HepG2 model: […] Afterwards, cells were harvested and lysed. […] For TG and TC assay: […] The medium was removed and the cells were washed twice with PBS. The levels of triglycerides (TG) and total cholesterol (TC) in the cells were determined according to the instructions of test kits.
# [3] = test system: Caco-2 cell monolayers; test: Bidirectional transport across Caco-2 cell monolayer; format: in vitro ADME, human; settings: 50 μmol/L, no inhibitor
# Procedure: The cells were seeded at a density of approximately 10^5 cells/cm^2 on TranswellTM filter (Corning Inc., Lowell, MA) and cultured for 21 d before use. Cell monolayer integrity was controlled by the measurement of trans-epithelial electrical resistance (TEER) with an EVOM epithelial voltammeter equipped with an electrode (World Precision Instruments, Sarasota, FL, United States). […] (a) R(%)=CBL×VBL/CAP×VAP×100 In this, R represents the absorption rate (as a percentage); CBL is the anthocyanin concentration of the BL side (in μM); VBL is the volume of anthocyanins from the BL (in L); CAP is the initial anthocyanin concentration of the AP side (in μM), and VAP is the volume of anthocyanins in the AP chamber (in L). The absorption rate of anthocyanins from BL to AP is calculated using the following Equation b: (b) R(%)=CAP×VAP/CBL×VBL×100 In this, R represents the absorption rate (as a percentage); CAP is the anthocyanin concentration from the AP side (in μM); VAP is the volume of anthocyanins in the AP chamber (in mL); CBL is the initial concentration from the BL side (in μM) and VBL is the volume of anthocyanins in the BL chamber (in L).
SMILES,Fasn protein expression level [1] [fold],increase of TC level [2] [%],increase of TG level [2] [%],ER (efflux rate) ([3]; 30 min),Papp (AP → BL) ([3]; 30 min),ER (efflux rate) ([3]; 60 min),Papp (AP → BL) ([3]; 60 min),ER (efflux rate) ([3]; 90 min),Papp (AP → BL) ([3]; 90 min),ER (efflux rate) ([3]; 120 min),Papp (AP → BL) ([3]; 120 min),ER (efflux rate) ([3]; 150 min),Papp (AP → BL) ([3]; 150 min)
"CCCCCCCC/C=C\CCCCCCCC(=O)O [OA, Oleic acid]",1.59 ± 0.16,12,22,–,–,–,–,–,–,–,–,–,–
"O=C1OC2(c3ccc(O)cc3Oc3cc(O)ccc32)c2ccccc21 [Fluorescin, Fluorescein, reference compound]",–,–,–,0.56,5.75 ± 0.17 ×10^−5 cm /s,0.34,5.07 ± 1.72 ×10^−5 cm /s,0.3,4.59 ± 2.21 ×10^−5 cm /s,0.27,4.6 ± 2.63 ×10^−5 cm /s,0.25,4.65 ± 2.94 ×10^−5 cm /s
